Reference: patent US20060039879A1, “Use of particular polyols for preventing the hair from breaking, composition comprising them and cosmetic hair treatment process” (L'OREAL, priority 2004, published 2006)

Tests used:
[1] = Level of premature breakage of hairs in a tensile test (Zwick tensile testing machine); details: 5% by weight compound in water; 30 natural African hairs immersed 3 days at 40° C., no final rinsing; hairs 30 mm, drawn at 10 mm/minute; untreated control R = 0.27
Procedure: The hair used for the following tests was left in a glove box at 25° C. and 45% relative humidity for about 24 hours.
A composition was prepared by mixing together 5% by weight of the compound of Example 1 and 95% by weight of water relative to the total weight of the composition.
30 natural African hairs were then treated with this composition: the hairs were immersed for 3 days at 40° C., without final rinsing, and their level of premature breakage was then compared with that of a batch of untreated natural control hairs.
Mechanical tests were performed using a Zwick tensile testing machine on the hairs 30 mm long. The hairs were drawn at a speed of 10 mm/minute.
The level of premature breakage of the treated African hair, on the one hand, and of the untreated African hair, on the other hand, was evaluated as follows: R=1—(number of hairs showing breakage under tension in the hardening zone/N) • N being the total number of hairs tested.

[2] = treatment with aqueous solutions of the humectant; breakage for small elongations; cited from earlier work

O=C(NCCO)NCCO [Example 1, N,N′-bis(2-hydroxyethyl)urea]
Level of premature breakage R, first test [1]: R = 0.17 | Level of premature breakage R, second test [1]: R = 0.10

OCC(O)CO [glycerol]
Improving the mechanical strength of Negroid hair and reducing its level of premature breakage [2]: effective
